Source: patent US7381705B2, “Inhibitors of hepatitis C virus” (The Administrators Of The Tulane Educational Fund, priority 2004, dated 2008)
Where two headings read alike, the source gives them in different places. Ends that are not written are not given here.

Tested on: HCV pseudotype (HIV core proteins, HCV E1 and E2 of strain H77)
Settings: for Percent inhibition: 25 μM; for Inhibition of HCV pseudotype infectivity (in words): summary of Tables 7 and 8
[1] = HCV H77 1a E2 peptides at ~25 μM, Table 7, virus alone 448,123
[2] = HCV J4 1b E2 peptides at ~25 μM, Table 8, controls as in Table 7

Sequence	Percent inhibition	Luciferase units [1]	Luciferase units [2]	Inhibition of HCV pseudotype infectivity (in words)
GNWFGCTWMNSTGFTKVC [compound 23]	17.9%	367,916 luciferase units (lumens)	–	–
GPISYANGSGLDERPYCW [compound 13, GPISYANGSGLDERPYCW]	31.1%	313,323 luciferase units (lumens)	–	–
GRTTAGLVGLLTPGAKQN [peptide 3, GRTTAGLVGLLTPGAKQN]	0.05%	447,906 luciferase units (lumens)	–	–
GSGLDERPYCWHYPPRPC [compound 14]	37.6%	279,626 luciferase units (lumens)	–	–
HINSTALNCNESLNTGWL [compound 7, HINSTALNCNESLNTGWL]	14.9%	381,340 luciferase units (lumens)	–	–
HPEATYSRCGSGPWITPR [compound 29, HPEATYSRCGSGPWITPR]	33.6%	297,353 luciferase units (lumens)	–	–
HPEATYTKCGSGPWLTPR [compound 105, HPEATYTKCGSGPWLTPR]	−23.2%	–	552,170 luciferase units (lumens)	–
HRLEAACNWTRGERCDLE [compound 36]	−19.5%	535,016 luciferase units (lumens)	–	–
HRLNAACNWTRGERCNLE [compound 111]	−39.2%	–	632,613 luciferase units (lumens)	–
HVTGGSAGRTTAGLVGLL [peptide 2, HVTGGSAGRTTAGLVGLL]	0.2%	447,336 luciferase units (lumens)	–	–
HYPCTINYTIFKVRMYVG [compound 33, HYPCTINYTIFKVRMYVG]	95.0%	22,406 luciferase units (lumens)	–	inhibitory
HYPCTLNFSIFKVRMYVG [compound 109, HYPCTLNFSIFKVRMYVG]	79.4%	–	96,893 luciferase units (lumens)	inhibitory
INTNGSWHINSTALNCNE [peptide 6, INTNGSWHINSTALNCNE]	−12.3%	503,446 luciferase units (lumens)	–	–
ITPRCMVDYPYRLWHYPC [compound 31]	6.4%	419,263 luciferase units (lumens)	–	–
KCGSGPWLTPRCLVDYPY [compound 106]	60.4%	–	193,533 luciferase units (lumens)	–
KWEYVVLLFLLLADARVC [compound 47, KWEYVVLLFLLLADARVC]	56.4%	195,320 luciferase units (lumens)	–	–
LASCRRLTDFAQGWGPIS [compound 11, LASCRRLTDFAQGWGPIS]	19.6%	360,410 luciferase units (lumens)	–	–
LFLLLADARVCACLWMML [compound 120]	−3.4%	–	463,243 luciferase units (lumens)	–
LFLLLADARVCSCLWMML [compound 48]	35.1%	290,786 luciferase units (lumens)	–	–
LLSTTEWQILPCAFTTLP [compound 115, LLSTTEWQILPCAFTTLP]	−6.2%	–	475,713 luciferase units (lumens)	–
LLSTTQWQVLPCSFTTLP [compound 40, LLSTTQWQVLPCSFTTLP]	1.3%	442,346 luciferase units (lumens)	–	–
LTPRCLVDYPYRLWHYPC [compound 107]	11.1%	–	402,976 luciferase units (lumens)	–
MASCRPIDWFAQGWGPIT [compound 88, MASCRPIDWFAQGWGPIT]	7.9%	–	412,776 luciferase units (lumens)	–
MYVGGVEHRLEAACNWTR [compound 35, MYVGGVEHRLEAACNWTR]	66.7%	153,553 luciferase units (lumens)	–	–
NCNESLNTGWLAGLFYQH [compound 8, NCNESLNTGWLAGLFYQH]	74.6%	113,650 luciferase units (lumens)	–	–
